Data reported in US8846909B2, “Bicyclic heteroaryl kinase inhibitors and methods of use” (University of Rochester, priority 2010, dated 2014).
Like-named read-outs stand apart in the source and are kept apart here.

How the values were obtained:
MLK3 [1] = target: T1, MLK3 (Homo sapiens, UniProt Q16584); assay: Radiometric filter plate MLK3 assay; format: biochemical; on MK3 IC50: 2 µM cold ATP (Km)
T1 construct: purchased Dundee DU8313
Protocol: After a twenty minute incubation, the reactions were washed through filter plates and read on a scintillation counter. Results are shown in Table 10 below, in which +++ indicates ≦0.1 μM, ++ indicates >0.1 μM and ≦1 μM, and + indicates >1 μM.

[2] = Pharmacokinetic evaluation in mice (plasma and brain AUC); format: in vivo; parameters: unit not given here; conditions: CL57 BL/6 mice, single IV injection 10 mg/kg, brain homogenate
Protocol: Several compounds disclosed herein were evaluated in a standard murine pharmacokinetic model. […] Three mice in each group were used for blood and brain collection at each time point. […] The brain of each animal was collected after the final blood collection. The whole tissue was harvested, excised and rinsed by saline, dried by filter paper, and then placed into one tube per tissue per animal. All samples were stored at −20° C. until bioanalysis. Compound concentrations in plasma and brain homogenate were determined using a high performance liquid chromatography/mass spectrometry (HPLC/MS/MS) method (Agilent 1100 series HPLC, AB Inc. API4000 triple-quadrupole with an ESI interface and Analyst 1.4 software). Results in the form of area under the time-versus-concentration curve (AUC) are given below in Table 11.

MLK3 [3] = target: T2, MLK3 (Rattus norvegicus, UniProt Q66HA1); conditions: primary rat neurons; cited from earlier work
T2 construct: autophosphorylation of MLK3 in primary rat neurons; endogenous in cells; host or cells: primary rat neurons
T2 sequence (Q66HA1 whole entry): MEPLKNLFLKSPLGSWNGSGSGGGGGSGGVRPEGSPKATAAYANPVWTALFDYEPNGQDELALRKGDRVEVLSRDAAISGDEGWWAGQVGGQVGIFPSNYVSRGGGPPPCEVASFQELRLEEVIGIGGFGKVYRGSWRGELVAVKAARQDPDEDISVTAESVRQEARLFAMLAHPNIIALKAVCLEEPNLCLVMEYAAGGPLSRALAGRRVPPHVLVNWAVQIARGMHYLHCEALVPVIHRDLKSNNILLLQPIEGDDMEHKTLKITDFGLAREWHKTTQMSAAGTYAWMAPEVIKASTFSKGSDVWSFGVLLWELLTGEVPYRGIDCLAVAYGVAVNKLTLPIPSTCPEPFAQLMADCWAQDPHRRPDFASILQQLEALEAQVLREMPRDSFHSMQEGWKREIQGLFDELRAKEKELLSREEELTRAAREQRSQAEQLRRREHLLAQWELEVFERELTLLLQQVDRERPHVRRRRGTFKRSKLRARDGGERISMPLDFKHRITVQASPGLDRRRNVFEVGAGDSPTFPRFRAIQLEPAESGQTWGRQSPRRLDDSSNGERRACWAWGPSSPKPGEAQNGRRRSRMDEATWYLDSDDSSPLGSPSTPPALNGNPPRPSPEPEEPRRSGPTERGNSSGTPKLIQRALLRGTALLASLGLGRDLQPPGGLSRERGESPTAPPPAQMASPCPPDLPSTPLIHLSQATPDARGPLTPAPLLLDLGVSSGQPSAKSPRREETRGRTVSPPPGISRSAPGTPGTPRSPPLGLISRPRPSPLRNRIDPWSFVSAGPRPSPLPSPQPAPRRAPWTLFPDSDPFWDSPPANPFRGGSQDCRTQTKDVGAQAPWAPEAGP

[4] = tested on: in vivo model of HIV-1 infection; conditions: reversing microglial activation, restoring normal synaptic architecture; cited from earlier work
[5] = tested on: primary rat hippocampal neurons and dorsal root ganglion neurons; conditions: cited from earlier work

T1 sequence (Q16584 whole entry): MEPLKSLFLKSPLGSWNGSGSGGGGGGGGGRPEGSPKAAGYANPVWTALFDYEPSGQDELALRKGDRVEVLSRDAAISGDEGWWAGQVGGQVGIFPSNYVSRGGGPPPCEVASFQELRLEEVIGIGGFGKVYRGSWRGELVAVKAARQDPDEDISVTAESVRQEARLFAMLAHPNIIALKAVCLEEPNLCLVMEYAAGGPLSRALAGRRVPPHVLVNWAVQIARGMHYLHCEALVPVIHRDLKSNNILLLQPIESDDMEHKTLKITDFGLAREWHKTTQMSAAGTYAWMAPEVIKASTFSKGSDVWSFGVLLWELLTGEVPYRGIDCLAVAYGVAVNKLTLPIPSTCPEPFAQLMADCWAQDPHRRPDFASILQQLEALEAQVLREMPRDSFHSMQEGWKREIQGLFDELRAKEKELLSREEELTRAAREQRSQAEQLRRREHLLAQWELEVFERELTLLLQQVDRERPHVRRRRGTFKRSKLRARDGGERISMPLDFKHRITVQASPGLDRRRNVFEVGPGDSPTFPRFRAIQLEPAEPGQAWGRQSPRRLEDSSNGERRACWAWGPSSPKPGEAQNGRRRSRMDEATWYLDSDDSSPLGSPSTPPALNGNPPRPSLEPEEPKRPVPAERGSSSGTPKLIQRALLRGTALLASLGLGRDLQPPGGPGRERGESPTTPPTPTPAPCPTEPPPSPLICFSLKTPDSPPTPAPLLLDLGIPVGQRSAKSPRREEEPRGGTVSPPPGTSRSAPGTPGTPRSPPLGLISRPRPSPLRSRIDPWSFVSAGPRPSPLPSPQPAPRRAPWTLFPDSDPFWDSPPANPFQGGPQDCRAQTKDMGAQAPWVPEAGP

In the case of Nc1ncc(-c2cnc3[nH]cc(-c4ccc5[nH]ccc5c4)c3c2)cn1 [Example 9, 5-(3-(1H-indol-5-yl)-1H-pyrrolo[2,3-b]pyridin-5-yl)pyrimidin-2-amine], the IC50 (MLK3 [1]; read-out: MK3 IC50) is reported as < 100 nM and the “AUC Brain” value [2] is reported as “+ (+ indicates ≧500)”.

In the case of COc1cc(-c2cnc3[nH]cc(-c4ccc(N)nc4)c3c2)cc(OC)c1OC [Example 18, 5-(5-(3,4,5-trimethoxyphenyl)-1H-pyrrolo[2,3-b]pyridin-3-yl)pyridin-2-amine], the IC50 (MLK3 [1]; read-out: MK3 IC50) is reported as < 100 nM and the “AUC Brain” value [2] is reported as “− (− indicates <500)”.

For COc1cc(-c2cnc3[nH]cc(-c4cnc(N)nc4)c3c2)cc(OC)c1OC [Example 17, 5-(5-(3,4,5-trimethoxyphenyl)-1H-pyrrolo[2,3-b]pyridin-3-yl)pyrimidin-2-amine], the IC50 (MLK3 [1]; read-out: MK3 IC50) was < 100 nM and the “AUC Brain” value [2] was “− (− indicates <500)”.

For Nc1ccc(-c2cnc3[nH]cc(-c4ccc5[nH]ccc5c4)c3c2)cn1 [Example 4, 5-(3-(1H-indol-5-yl)-1H-pyrrolo[2,3-b]pyridin-5-yl)pyridin-2-amine], the IC50 (MLK3 [1]; read-out: MK3 IC50) was < 100 nM and the “AUC Brain” value [2] was “− (− indicates <500)”.

In the case of CCSCc1ccc2c(c1)c1c3c(c4c5cc(CSCC)ccc5n5c4c1n2[C@H]1C[C@](O)(C(=O)OC)[C@]5(C)O1)CNC3=O [CEP1347], the “Tat and gp120 induced autophosphorylation of MLK3” value (MLK3 [3]) is listed as “abolished”, the “neuroprotection in in vivo model of HIV-1 infection” value [4] is listed as “neuroprotective” and the “protection of neurons from lethal effects of HIV-1 gp120” value [5] is listed as “can protect”.

With COc1cc(-c2cnc3[nH]cc(-c4ccc(NC(C)=O)cc4)c3c2)cc(OC)c1OC [Example 16, N-(4-(5-(3,4,5-trimethoxyphenyl)-1H-pyrrolo[2,3-b]pyridin-3-yl)phenyl)acetamide] the IC50 (MLK3 [1]; read-out: MK3 IC50) was < 100 nM.

With CN1CCN(Cc2ccc(-c3cnc4[nH]cc(-c5ccc6[nH]ccc6c5)c4c3)cc2)CC1 [Example 32, 3-(1H-indol-5-yl)-5-(4-((4-methylpiperazin-1-yl)methyl)phenyl)-1H-pyrrolo[2,3-b]pyridine] the “AUC Brain” value [2] was “+ (+ indicates ≧500)”.

For COc1ccc(-c2cnc3[nH]cc(-c4ccc(C(N)=O)cc4)c3c2)cc1OC [Example 26, 4-(5-(3,4-dimethoxyphenyl)-1H-pyrrolo[2,3-b]pyridin-3-yl)benzamide], the IC50 (MLK3 [1]; read-out: MK3 IC50) was < 100 nM.

In the case of COc1cc(-c2nc3c(nc2Cl)[nH]c(=O)n3CC2CC2)cc(OC)c1OC [Example 119, 5-chloro-1-(cyclopropylmethyl)-6-(3,4,5-trimethoxyphenyl)-1H-imidazo[4,5-b]pyrazin-2(3H)-one], the IC50 (MLK3 [1]; read-out: MK3 IC50) is reported as > 1000 nM.

For CC(=O)N1CCN(Cc2ccc(-c3cnc4[nH]cc(-c5ccc6[nH]ccc6c5)c4c3)cc2)CC1C (centres unmarked) [Example 197, 1-(4-(4-(3-(1H-indol-5-yl)-1H-pyrrolo[2,3-b]pyridin-5-yl)benzyl)-2-methylpiperazin-1-yl)ethanone], the IC50 (MLK3 [1]; read-out: MK3 IC50) was < 100 nM.

In the case of COc1cc(-c2cnc3[nH]cc(-c4ccc(N)cc4)c3c2)cc(OC)c1OC [Example 15, 4-(5-(3,4,5-trimethoxyphenyl)-1H-pyrrolo[2,3-b]pyridin-3-yl)aniline], the IC50 (MLK3 [1]; read-out: MK3 IC50) is reported as < 100 nM.

In the case of CC1CN(Cc2ccc(-c3cnc4[nH]cc(-c5ccc6[nH]ccc6c5)c4c3)cc2)CCN1C (centres unmarked) [Example 198, 5-(4-((3,4-dimethylpiperazin-1-yl)methyl)phenyl)-3-(1H-indol-5-yl)-1H-pyrrolo[2,3-b]pyridine], the IC50 (MLK3 [1]; read-out: MK3 IC50) is reported as < 100 nM.

For CN1CCN(Cc2ccc(-c3c[nH]c4ncc(-c5ccc6[nH]ccc6c5)cc34)cc2)CC1 [Example 163, 5-(1H-indol-5-yl)-3-[4-(4-methyl-piperazin-1-ylmethyl)-phenyl]-1H-pyrrolo[2,3-b]pyridine], the IC50 (MLK3 [1]; read-out: MK3 IC50) was > 1000 nM.

In the case of COc1cc(-c2cnc3[nH]c(=O)n(-c4ccc5[nH]ccc5c4)c3n2)ccc1OCCN1CCOCC1 [Example 57, 1-(1H-indol-5-yl)-6-(3-methoxy-4-(2-morpholinoethoxy)phenyl)-1H-imidazo[4,5-b]pyrazin-2(3H)-one], the IC50 (MLK3 [1]; read-out: MK3 IC50) is reported as < 100 nM.

Work on COc1cc(-c2cnc3c(c2)C(CC2CC2)C(=O)N3)cc(OC)c1OC (centres unmarked) [Example 123, 3-(cyclopropylmethyl)-5-(3,4,5-trimethoxyphenyl)-1H-pyrrolo[2,3-b]pyridin-2(3H)-one] yielded an IC50 (MLK3 [1]; read-out: MK3 IC50) of 100 to 1000 nM.

For COc1cc(-c2cnc3[nH]c(=O)n(-c4cnc5[nH]ccc5c4)c3n2)cc(OC)c1OC [Example 112, 1-(1H-pyrrolo[2,3-b]pyridin-5-yl)-6-(3,4,5-trimethoxyphenyl)-1H-imidazo[4,5-b]pyrazin-2(3H)-one], the IC50 (MLK3 [1]; read-out: MK3 IC50) was < 100 nM.

For O=c1[nH]c2ncc(-c3ccncc3)nc2n1-c1ccc2[nH]ccc2c1 [Example 44, 1-(1H-indol-5-yl)-6-(pyridin-4-yl)-1H-imidazo[4,5-b]pyrazin-2(3H)-one], the IC50 (MLK3 [1]; read-out: MK3 IC50) was > 1000 nM.

For COc1cc(-c2cnc3c(c2)C(CC2CC2)(CC2CC2)C(=O)N3)cc(OC)c1OC [Example 122, 3,3-bis(cyclopropylmethyl)-5-(3,4,5-trimethoxyphenyl)-1H-pyrrolo[2,3-b]pyridin-2(3H)-one], the IC50 (MLK3 [1]; read-out: MK3 IC50) was > 1000 nM.

In the case of COCC(=O)N1CCN(Cc2ccc(-c3cnc4[nH]cc(-c5ccc6[nH]ccc6c5)c4c3)cc2)CC1 [Example 188], the IC50 (MLK3 [1]; read-out: MK3 IC50) is reported as < 100 nM.

With Nc1ncc(-c2cnc3[nH]cc(-c4cnc(N)nc4)c3c2)cn1 [Example 20, 5,5′-(1H-pyrrolo[2,3-b]pyridine-3,5-diyl)dipyrimidin-2-amine] the IC50 (MLK3 [1]; read-out: MK3 IC50) was > 1000 nM.

For COc1cc(-c2cnc3[nH]cc(-c4ccc5[nH]ccc5c4)c3c2)cc(OC)c1OC [Example 1, 3-(1H-indol-5-yl)-5-(3,4,5-trimethoxyphenyl)-1H-pyrrolo[2,3-b]pyridine], the “AUC Brain” value [2] was “+ (+ indicates ≧500)”.

With COc1ccc(-c2cnc3[nH]c(=O)n(-c4ccc5[nH]ccc5c4)c3n2)cc1F [Example 49, 6-(3-fluoro-4-methoxyphenyl)-1-(1H-indol-5-yl)-1H-imidazo[4,5-b]pyrazin-2(3H)-one] the IC50 (MLK3 [1]; read-out: MK3 IC50) was > 1000 nM.

For COc1ccc(-n2c(=O)[nH]c3ncc(-c4ccc(OC)c(OC)c4)nc32)cc1 [Example 69, 6-(3,4-dimethoxyphenyl)-1-(4-methoxyphenyl)-1H-imidazo[4,5-b]pyrazin-2(3H)-one], the IC50 (MLK3 [1]; read-out: MK3 IC50) was > 1000 nM.

With O=c1[nH]c2ncc(-c3ccc(N4CCOCC4)cc3)nc2n1-c1ccc2[nH]ncc2c1 [Example 89, 1-(1H-indazol-5-yl)-6-(4-morpholinophenyl)-1H-imidazo[4,5-b]pyrazin-2(3H)-one] the IC50 (MLK3 [1]; read-out: MK3 IC50) was > 1000 nM.

With CCS(=O)(=O)N1CCN(Cc2ccc(-c3cnc4[nH]cc(-c5ccc6[nH]ccc6c5)c4c3)cc2)CC1 [Example 189] the IC50 (MLK3 [1]; read-out: MK3 IC50) was < 100 nM.

In the case of c1ccc(CN2CCN(Cc3ccc(-c4cnc5[nH]cc(-c6ccc7[nH]ccc7c6)c5c4)cc3)CC2)cc1 [Example 178], the IC50 (MLK3 [1]; read-out: MK3 IC50) is reported as 100 to 1000 nM.

Work on CC(C)OC(=O)N1CCN(Cc2ccc(-c3cnc4[nH]cc(-c5ccc6[nH]ccc6c5)c4c3)cc2)CC1 [Example 185] yielded an IC50 (MLK3 [1]) of 100 to 1000 nM.

In the case of CN1CCN(Cc2ccc(-c3cnc4[nH]cc(-c5cnc6[nH]ccc6c5)c4c3)cc2)CC1 [Example 202], the IC50 (MLK3 [1]; read-out: MK3 IC50) is reported as < 100 nM.

With CC(C)(C)CC(=O)N1CCN(Cc2ccc(-c3cnc4[nH]cc(-c5ccc6[nH]ccc6c5)c4c3)cc2)CC1 [Example 182] the IC50 (MLK3 [1]; read-out: MK3 IC50) was < 100 nM.
